Measured values taken from the supplement of paper PMC10307832.

Experiments:
Assay in all cases: relative viability (nuclei count vs DMSO), 5 days (fraction); higher = more cells survive
AT9283 + Linsitinib = compound: O=C(Nc1c[nH]nc1-c1nc2ccc(CN3CCOCC3)cc2[nH]1)NC1CC1 [AT9283] + C[C@]1(O)C[C@@H](c2nc(-c3ccc4ccc(-c5ccccc5)nc4c3)c3c(N)nccn32)C1 [Linsitinib] (partner 1 µM)
Summary of the method: (§1)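 Five library-drug doses in √10 steps were combined with a fixed anchor-drug dose, or a single drug was given alone, by pin tool to lung cancer cell lines in 1536-well plates the day after seeding. Nuclei were stained and counted after 5 days. Relative viability is the nuclei count in treated wells over that in vehicle wells, taken as the median of duplicate plates.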

Erlotinib + Vorinostat = compound: C#Cc1cccc(Nc2ncnc3cc(OCCOC)c(OCCOC)cc23)c1 [Erlotinib] + O=C(CCCCCCC(=O)Nc1ccccc1)NO [Vorinostat] (partner 1 µM)
Summary of the method: as §1

AT9283 + Decitabine = compound: O=C(Nc1c[nH]nc1-c1nc2ccc(CN3CCOCC3)cc2[nH]1)NC1CC1 [AT9283] + Nc1ncn([C@H]2C[C@H](O)[C@@H](CO)O2)c(=O)n1 [Decitabine] (partner 2 µM)
Summary of the method: as §1

AT9283 + Pemetrexed = compound: O=C(Nc1c[nH]nc1-c1nc2ccc(CN3CCOCC3)cc2[nH]1)NC1CC1 [AT9283] + Nc1nc2[nH]cc(CCc3ccc(C(=O)N[C@@H](CCC(=O)O)C(=O)O)cc3)c2c(=O)[nH]1 [Pemetrexed] (partner 0.2 µM)
Summary of the method: as §1

AT9283 + Luminespib = compound: O=C(Nc1c[nH]nc1-c1nc2ccc(CN3CCOCC3)cc2[nH]1)NC1CC1 [AT9283] + CCNC(=O)c1noc(-c2cc(C(C)C)c(O)cc2O)c1-c1ccc(CN2CCOCC2)cc1 [Luminespib] (partner 0.01 µM)
Summary of the method: as §1

NCI-H441 gave a relative viability (AT9283 + Linsitinib; first compound 0.003 µM) of 0.535, a relative viability (AT9283 + Linsitinib; first compound 0.03 µM) of 0.474 and a relative viability (AT9283 + Linsitinib; first compound 0.09487 µM) of 0.142. For the same cell line, the relative viability (AT9283 + Linsitinib; first compound 0.3 µM) was 0.165, the relative viability (Erlotinib + Vorinostat; first compound 0.02 µM) was 0.841 and the relative viability (Erlotinib + Vorinostat; first compound 0.2 µM) was 0.725. It also gave a relative viability (Erlotinib + Vorinostat; first compound 0.6325 µM) of 0.84, a relative viability (Erlotinib + Vorinostat; first compound 2 µM) of 0.745 and a relative viability (AT9283 + Decitabine; first compound 0.003 µM) of 0.245. The relative viability (AT9283 + Decitabine; first compound 0.03 µM) was 0.281, the relative viability (AT9283 + Decitabine; first compound 0.09487 µM) was 0.202 and the relative viability (AT9283 + Decitabine; first compound 0.3 µM) was 0.217. For the same cell line, the relative viability (AT9283 + Pemetrexed; first compound 0.003 µM) was 0.228, the relative viability (AT9283 + Pemetrexed; first compound 0.03 µM) was 0.274 and the relative viability (AT9283 + Pemetrexed; first compound 0.09487 µM) was 0.25. The relative viability (AT9283 + Pemetrexed; first compound 0.3 µM) was 0.238, the relative viability (AT9283 + Luminespib; first compound 0.003 µM) was 0.432 and the relative viability (AT9283 + Luminespib; first compound 0.03 µM) was 0.347. It also gave a relative viability (AT9283 + Luminespib; first compound 0.09487 µM) of 0.344 and a relative viability (AT9283 + Luminespib; first compound 0.3 µM) of 0.263.
